We go through 17 compounds from patent publication US20140107109A1, “AMINO-DIHYDROTHIAZINE AND AMINO-DIOXIDO DIHYDROTHIAZINE COMPOUNDS AS BETA-SECRETASE ANTAGONISTS AND METHODS OF USE” (Amgen Inc., priority 2012, published 2014).

Where two headings read alike, the source gives them in different places.

Experiment [1] has as its target Beta Secretase enzyme (BACE1) (Homo sapiens, UniProt P56817). Put plainly: In vitro enzymatic BACE FRET assay. Type of experiment: biochemical. The settings on record: read-out: BACE1 FRET assay IC50. The protocol: In Vitro Enzymatic BACE FRET (Fluorescence Resonance Energy Transfer) Assay (Enzyme Assay Data in the Example Tables I and II)
The assay buffer used in this screen is 0.05 M acetate, pH 4.2, 10% DMSO final, 100 uM genapol (which is a nonionic detergent, below its Critical Micelle Concentration). […] This assay is effectively started by the addition of FRET substrate (50 nM) and the combination is incubated for one hour. The FRET assay is terminated with by addition of Tris buffer, which raises the pH to neutrality, and the fluorescence is determined. The FRET substrate is a peptide with commercially available fluorophore and quencher, on opposite sides of the BACE cleavage site. Proteolytic cleavage of the FRET substrate releases quenching of fluorescence (excitation […] and […]).

Experiment [2] deals with Aβ40 in conditioned medium of cells stably expressing Amyloid Precursor Protein (APP). Description: In vitro BACE cell-based assay (HEK cell assay), Aβ40 sandwich ELISA. The conditions noted are these: Homo sapiens, HEK293. The protocol: In Vitro BACE Cell-Based Assay
The cell-based assay measures inhibition or reduction of Aβ40 in conditioned medium of test compound treated cells expressing amyloid precursor protein.
Cells stably expressing Amyloid Precursor Protein (APP) were plated at a density of 40K cells/well in 96 well plates (Costar). The cells were cultivated for 24 hours at 37C. and 5% CO2 in DMEM supplemented with 10% FBS. The test compounds were then added to cells in 10-point dose response concentrations with the starting concentration being either 100 μM or 10 μM. The compounds were diluted from stock solutions in DMSO and the final DMSO concentration of the test compounds on cells was 0.1%. After 24 h of incubation with the test compounds the supernatant conditioned media was collected and the Aβ 40 levels were determined using a sandwich ELISA. The IC50 of the compound was calculated from the percent of control or percent inhibition of Aβ 40 as a function of the concentration of the test compound.
The sandwich ELISA to detect Aβ 40 was performed in 96 well microtiter plates, which were pre-treated with goat anti-rabbit IgG (Pierce). The capture and detecting antibody pair that were used to detect Aβ 40 from cell supernatants were affinity purified pAb40 (Biosource) and biotinylated 6E10 (Signet Labs Inc.), respectively. The optimal concentration for the pAb40 antibody was 3 μg/ml in Superblock/TBS (Pierce) that was supplemented with 0.05% Tween 20 (Sigma). Optimal concentration for the detection antibody 6E10-biotinylated was 0.5 μg/ml in Superblock/TBS (Pierce) that had been supplemented with 2% normal goat serum and 2% normal mouse serum.
Cellular supernatants were incubated with the capture antibody for 3 h at 4° C., followed by 3 wash steps in TBS-tween (0.05%). The detecting antibody incubation was for 2 h at 4° C., again followed by the wash steps as described previously. The final readout of the ELISA is Time-Resolved Fluorescence (counts per minute) using Delfia reagents Streptavidin-Europium and Enhancement solutions (Perkin Elmer) and the Victor 2 multilabel counter (Perkin Elmer).
(In general: ELISA stands for enzyme-linked immunosorbent assay.)

Experiment [3] deals with T1, Cathepsin D (Cat D) (Homo sapiens, UniProt P07339).
T1 construct: Recombinant Cat D was expressed in CHO cells; made in house; host or cells: CHO cells
Description: In vitro enzymatic Cathepsin D (Cat D) FRET assay. It counts as biochemical. The settings on record: read-out: CatD IC50. The protocol: In Vitro Enzymatic Cathepsin D (Cat D) FRET (Fluorescence Resonance Energy Transfer) Assay Recombinant Cat D was expressed in CHO cells. […] The Cat D enzyme (9 nM) is pre-incubated for one hour with inhibitors, typically in about 1 uL of DMSO according to a serial dilution, is added thereto. […] The FRET assay is terminated with by addition of Tris buffer, which raises the pH to neutrality, and the fluorescence is determined. The FRET substrate is a peptide with commercially available fluorophore and quencher, on opposite sides of the BACE cleavage site. The Cat D substrate peptide sequence is based on sequence #1 of Table 1 from Gulnik et al. […] Alternatively, a Cat D assay may also be run according to the procedure described in the article, Characterization of new fluorgenic substrates for the rapid and sensitive assay of cathepsin E and cathepsin D, J. Biochem., 125:1137, 1999. In addition, the cathepsin D and cathepsin E assays are described in PCT publication WO2011069934. This WIPO publication describes BACE inhibitor compounds having an amide linker connecting two aromatic groups with extremely poor cathepsin D and/or cathepsin E inhibitory activity (see Table 2). Where available, the in-vitro Cat D FRET assay data for each of the Examples, conducted by the first procedure, is provided.

Beta Secretase enzyme (BACE1), sequence (P56817 46-501): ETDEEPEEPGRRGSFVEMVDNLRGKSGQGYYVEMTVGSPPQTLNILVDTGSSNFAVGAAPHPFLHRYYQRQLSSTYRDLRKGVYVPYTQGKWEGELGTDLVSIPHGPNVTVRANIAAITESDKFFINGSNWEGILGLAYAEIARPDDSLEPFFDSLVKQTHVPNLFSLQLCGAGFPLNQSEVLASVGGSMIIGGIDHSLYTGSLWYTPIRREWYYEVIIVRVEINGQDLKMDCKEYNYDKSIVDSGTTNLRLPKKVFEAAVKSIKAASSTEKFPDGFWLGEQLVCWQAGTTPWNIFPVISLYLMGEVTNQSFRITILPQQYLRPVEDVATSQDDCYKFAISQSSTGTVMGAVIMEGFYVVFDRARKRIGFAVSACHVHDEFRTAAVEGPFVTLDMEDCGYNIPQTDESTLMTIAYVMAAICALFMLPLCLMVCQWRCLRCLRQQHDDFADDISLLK
T1 sequence (P07339 65-412, species assumed): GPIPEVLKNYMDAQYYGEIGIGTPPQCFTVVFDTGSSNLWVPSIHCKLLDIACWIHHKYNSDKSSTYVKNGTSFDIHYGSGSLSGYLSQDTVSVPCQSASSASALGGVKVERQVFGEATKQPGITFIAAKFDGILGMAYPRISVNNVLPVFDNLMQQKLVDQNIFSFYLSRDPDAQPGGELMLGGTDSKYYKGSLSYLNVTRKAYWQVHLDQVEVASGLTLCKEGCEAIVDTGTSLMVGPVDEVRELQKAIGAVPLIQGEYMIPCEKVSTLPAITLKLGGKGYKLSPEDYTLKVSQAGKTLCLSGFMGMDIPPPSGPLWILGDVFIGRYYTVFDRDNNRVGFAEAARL

For `C[C@@]1(c2cc(Br)ccc2F)CS(=O)(=O)C2(CCOC2)C(N)=N1` (mixture of isomers) [Example 181, (8R)-10-Amino-8-(5-bromo-2-fluorophenyl)-8-methyl-2-oxa-6-thia-9-azaspiro[4.5]dec-9-ene 6,6-dioxide], the IC50 is 16300 nM in experiment [1] (average IC50); > 15600 nM in experiment [2] (average IC50, HEK cells); 43300 nM in experiment [3].
Taken in the same sequence, the figures for `C[C@@]1(c2cc(Nc3nccc4cc(Cl)cnc34)ccc2F)CS(=O)(=O)C2(CCOC2)C(N)=N1` (mixture of isomers) [Example 182, (8R)-10-amino-8-(5-((3-chloro-1,7-naphthyridin-8-yl)amino)-2-fluorophenyl)-8-methyl-2-oxa-6-thia-9-azaspiro[4.5]dec-9-ene 6,6-dioxide] were 2.2 nM, 30.6 nM and 63600 nM.
With `CC1(C)C(N)=N[C@](C)(c2cc(Nc3nccc4cc(Cl)cnc34)cc(F)c2F)CS1(=O)=O` (single isomer, unassigned) [Example 70], the IC50 is 830 nM in experiment [1]; 5040 nM in experiment [2] (Aβ40, 24 h incubation); 164000 nM in experiment [3].
As to `CC1(C)C(N)=N[C@](C)(c2cc(NC(=O)c3ccc(F)cn3)ccc2F)CS1(=O)=O` [Example 18, N-(3-((3R)-5-amino-3,6,6-trimethyl-1,1-dioxido-3,6-dihydro-2H-1,4-thiazin-3-yl)-4-fluorophenyl)-5-fluoro-2-pyridinecarboxamide], the IC50 was 1.9 nM in experiment [1]; 3.7 nM in experiment [2] (Aβ40, 24 h incubation); > 400000 nM in experiment [3].
For `CC1(C)C(N)=N[C@](C)(c2cc(NC(=O)c3ccc(C(F)F)cn3)ccc2F)CS1(=O)=O` [Example 20, N-(3-((3R)-5-amino-3,6,6-trimethyl-1,1-dioxido-3,6-dihydro-2H-1,4-thiazin-3-yl)-4-fluorophenyl)-5-(difluoromethyl)-2-pyridinecarboxamide], the IC50 in experiment [1] came to 2.7 nM; in experiment [2] (Aβ40, 24 h incubation) it was 3.9 nM; in experiment [3] it was 193000 nM.
Taken in the same sequence, the figures for `CC1(C)C(N)=N[C@](C)(c2cc(NC(=O)c3cnc(C(F)(F)F)cn3)ccc2F)CS1(=O)=O` [Example 21, N-(3-((3R)-5-amino-3,6,6-trimethyl-1,1-dioxido-3,6-dihydro-2H-1,4-thiazin-3-yl)-4-fluorophenyl)-5-(trifluoromethyl)-2-pyrazinecarboxamide] were 7.4 nM, 11 nM and > 400000 nM.
Take `COc1ccc(C(=O)Nc2ccc(F)c([C@]3(C)CS(=O)(=O)C(C)(C)C(N)=N3)c2)nc1` [Example 22, N-(3-((3R)-5-amino-3,6,6-trimethyl-1,1-dioxido-3,6-dihydro-2H-1,4-thiazin-3-yl)-4-fluorophenyl)-5-methoxy-2-pyridinecarboxamide]: the IC50 in experiment [1] is 1.5 nM; in experiment [2] (Aβ40, 24 h incubation), 3.1 nM; in experiment [3] it was > 400000 nM.
The like results for `CC1(C)C(N)=N[C@](C)(c2cc(NC(=O)c3ccc(C#N)cn3)ccc2F)CS1(=O)=O` [Example 23, N-(3-((3R)-5-amino-3,6,6-trimethyl-1,1-dioxido-3,6-dihydro-2H-1,4-thiazin-3-yl)-4-fluorophenyl)-5-cyano-2-pyridinecarboxamide] were, in that order, 2.7 nM, 2.7 nM and 617000 nM.
Taken in the same sequence, the figures for `CC1(C)C(N)=N[C@](C)(c2cc(NC(=O)c3ncc(Cl)cc3F)ccc2F)CS1(=O)=O` [Example 24, N-(3-((3R)-5-amino-3,6,6-trimethyl-1,1-dioxido-3,6-dihydro-2H-1,4-thiazin-3-yl)-4-fluorophenyl)-5-chloro-3-fluoro-2-pyridinecarboxamide] were 0.6 nM, 3.7 nM and > 400000 nM.
Taken in the same sequence, the figures for `Cc1cc(Cl)cnc1C(=O)Nc1ccc(F)c([C@]2(C)CS(=O)(=O)C(C)(C)C(N)=N2)c1` [Example 25, N-(3-((3R)-5-amino-3,6,6-trimethyl-1,1-dioxido-3,6-dihydro-2H-1,4-thiazin-3-yl)-4-fluorophenyl)-5-chloro-3-methyl-2-pyridinecarboxamide] were 0.3 nM, 3.2 nM and 263000 nM.
As to `CC#CCOc1cnc(C(=O)Nc2ccc(F)c([C@]3(C)CS(=O)(=O)C(C)(C)C(N)=N3)c2)cn1` [Example 26, N-(3-((3R)-5-amino-3,6,6-trimethyl-1,1-dioxido-3,6-dihydro-2H-1,4-thiazin-3-yl)-4-fluorophenyl)-5-(2-butyn-1-yloxy)-2-pyrazinecarboxamide], the IC50 came to 0.4 nM in experiment [1]; 0.05 nM in experiment [2] (Aβ40, 24 h incubation); 475000 nM in experiment [3].
Turning to `CC1(C)C(N)=N[C@](C)(c2cc(Nc3ncnc4cc(Cl)cnc34)ccc2F)C(F)S1(=O)=O` (stereo partly drawn) [Example 228, N-(3-((3R)-5-amino-2-fluoro-3,6,6-trimethyl-1,1-dioxido-3,6-dihydro-2H-1,4-thiazin-3-yl)-4-fluorophenyl)-7-chloropyrido[3,2-d]pyrimidin-4-amine], the IC50 in experiment [1] (average IC50, enzyme assay) is 3.28 nM; in experiment [3], 58900 nM.
On to `CC1(C)C(N)=N[C@](C)(c2cc(Nc3ncnc4cc(C#N)cnc34)ccc2F)C(F)S1(=O)=O` (stereo partly drawn) [Example 229, 4-((3-((3R)-5-amino-2-fluoro-3,6,6-trimethyl-1,1-dioxido-3,6-dihydro-2H-1,4-thiazin-3-yl)-4-fluorophenyl)amino)pyrido[3,2-d]pyrimidine-7-carbonitrile], for which the IC50 in experiment [1] (average IC50, enzyme assay) was determined as 1.01 nM; in experiment [3], 80700 nM.
The like results for `NC1=N[C@@](CF)(c2cc(Nc3nccc4cc(Cl)cnc34)ccc2F)CS(=O)(=O)C12CCC2` [Example 244, N-(3-((7R)-9-amino-7-(fluoromethyl)-5,5-dioxido-5-thia-8-azaspiro[3.5]non-8-en-7-yl)-4-fluorophenyl)-3-chloro-1,7-naphthyridin-8-amine] were, in that order, 3530 nM and 528000 nM.
The like results for `COc1ccnc(Oc2ccc(F)c([C@]3(C)CS(=O)(=O)C(C)(C)C(N)=N3)c2)c1` [Example 287, (5R)-5-(2-fluoro-5-((4-methoxy-2-pyridinyl)oxy)phenyl)-2,2,5-trimethyl-5,6-dihydro-2H-1,4-thiazin-3-amine 1,1-dioxide] were, in that order, 100 nM and 204000 nM.
The like results for `CC1(C)C(N)=N[C@](C)(c2cc(Oc3ncccn3)ccc2F)CS1(=O)=O` [Example 288, (5R)-5-(2-fluoro-5-(2-pyrimidinyloxy)phenyl)-2,2,5-trimethyl-5,6-dihydro-2H-1,4-thiazin-3-amine 1,1-dioxide] were, in that order, 125 nM and 222000 nM.
For the compound `COc1cnc2c(Oc3ccc(F)c([C@]4(C)CS(=O)(=O)C(C)(C)C(N)=N4)c3)nccc2c1` [Example 305, (5R)-5-(2-fluoro-5-((3-methoxy-1,7-naphthyridin-8-yl)oxy)phenyl)-2,2,5-trimethyl-5,6-dihydro-2H-1,4-thiazin-3-amine 1,1-dioxide], the concentration for half-maximal inhibition (IC50) in experiment [1] (average IC50, enzyme assay) turned out to be 2070 nM; in experiment [3], 680000 nM.

In general, IC50 refers to the concentration at which inhibition is half-maximal.
